From patent US10081624B2, “Heterocyclic compound” (Takeda Pharmaceutical Company Limited, priority 2014, dated 2018)

How the values were obtained:
[1] = molecular target: T1, HDAC1 enzyme (Homo sapiens, UniProt Q13547); test: HDAC1 enzyme inhibitory assay (HDAC-Glo I/II Assay kit); type: biochemical; conditions: 1 μM test compound; for inhibition at 1 µM: read-out: HDAC1 inhibitory rate (%) (1 μM)
T1 construct: prepared by transducing full length HDAC1 and HDAC6 genes into Sf-9 insect cells; GST; purchased SignalChem; host or cells: Sf-9 insect cells
T1 sequence (Q13547 whole entry): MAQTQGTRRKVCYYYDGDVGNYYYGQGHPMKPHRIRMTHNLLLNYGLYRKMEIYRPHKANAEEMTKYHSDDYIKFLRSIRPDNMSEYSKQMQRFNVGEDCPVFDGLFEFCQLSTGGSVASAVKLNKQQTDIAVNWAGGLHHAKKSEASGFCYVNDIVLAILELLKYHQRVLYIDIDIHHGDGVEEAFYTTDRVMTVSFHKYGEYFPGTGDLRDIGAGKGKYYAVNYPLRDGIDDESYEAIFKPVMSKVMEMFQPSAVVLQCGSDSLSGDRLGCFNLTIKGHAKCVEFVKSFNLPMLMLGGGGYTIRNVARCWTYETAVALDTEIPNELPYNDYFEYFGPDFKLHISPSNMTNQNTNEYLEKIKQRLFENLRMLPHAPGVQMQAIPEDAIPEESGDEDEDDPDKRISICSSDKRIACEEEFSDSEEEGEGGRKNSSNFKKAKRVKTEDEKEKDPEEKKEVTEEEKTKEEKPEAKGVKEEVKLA
Procedure, shortened: (§1)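 Relative activity was calculated from luminescence, with wells lacking enzyme defined as 100% inhibition. The enzymes were full-length HDAC1 or HDAC6 from Sf-9 cells, preincubated with test compound for 60 min before a 20-min substrate-developer reaction at room temperature.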

[2] = molecular target: T2, HDAC6 enzyme (Homo sapiens, UniProt Q9UBN7); test: HDAC6 enzyme inhibitory assay (HDAC-Glo I/II Assay kit); type: biochemical; conditions: 1 μM test compound; for inhibition at 1 µM: read-out: HDAC6 inhibitory rate (%) (1 μM)
T2 construct: prepared by transducing full length HDAC1 and HDAC6 genes into Sf-9 insect cells; GST; purchased SignalChem; host or cells: Sf-9 insect cells
T2 sequence (Q9UBN7 1-1215): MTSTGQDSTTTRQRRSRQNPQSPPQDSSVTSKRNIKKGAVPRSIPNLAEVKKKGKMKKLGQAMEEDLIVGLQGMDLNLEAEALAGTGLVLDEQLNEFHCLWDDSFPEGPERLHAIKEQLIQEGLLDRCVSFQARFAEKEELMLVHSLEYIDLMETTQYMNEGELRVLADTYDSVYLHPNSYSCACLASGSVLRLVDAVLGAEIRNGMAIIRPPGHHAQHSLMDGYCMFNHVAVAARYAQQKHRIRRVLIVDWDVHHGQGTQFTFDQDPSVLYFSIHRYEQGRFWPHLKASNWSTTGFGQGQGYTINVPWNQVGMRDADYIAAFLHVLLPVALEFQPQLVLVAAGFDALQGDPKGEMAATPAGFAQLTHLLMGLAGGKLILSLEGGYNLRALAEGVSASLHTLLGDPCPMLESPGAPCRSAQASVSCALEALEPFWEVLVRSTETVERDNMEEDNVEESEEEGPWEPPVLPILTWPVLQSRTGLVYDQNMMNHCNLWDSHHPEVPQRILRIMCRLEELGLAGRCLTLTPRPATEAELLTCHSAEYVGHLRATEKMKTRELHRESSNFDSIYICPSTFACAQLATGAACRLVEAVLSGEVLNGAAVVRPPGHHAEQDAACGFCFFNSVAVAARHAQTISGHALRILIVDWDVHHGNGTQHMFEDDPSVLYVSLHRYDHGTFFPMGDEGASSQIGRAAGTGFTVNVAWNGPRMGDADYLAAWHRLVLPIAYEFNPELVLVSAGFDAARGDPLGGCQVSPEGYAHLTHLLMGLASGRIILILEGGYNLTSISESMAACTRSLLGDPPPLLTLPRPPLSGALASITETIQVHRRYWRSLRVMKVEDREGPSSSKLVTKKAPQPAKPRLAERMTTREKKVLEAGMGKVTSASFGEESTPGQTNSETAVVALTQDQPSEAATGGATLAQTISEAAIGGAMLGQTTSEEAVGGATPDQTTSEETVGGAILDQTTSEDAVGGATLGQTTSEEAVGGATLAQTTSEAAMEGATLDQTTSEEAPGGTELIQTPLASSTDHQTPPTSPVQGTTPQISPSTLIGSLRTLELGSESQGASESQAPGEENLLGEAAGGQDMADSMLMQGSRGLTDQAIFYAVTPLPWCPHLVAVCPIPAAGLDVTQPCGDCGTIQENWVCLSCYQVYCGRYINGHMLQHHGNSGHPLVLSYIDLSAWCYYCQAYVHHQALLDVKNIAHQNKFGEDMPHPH
Procedure, shortened: as §1

Structure (SMILES)	inhibition at 1 µM [1] [%]	inhibition at 1 µM [2] [%]	HDAC6 inhibitory rate (%) (1 μM) [2]	HDAC1 inhibitory rate (%) (1 μM) [1]
O=C(NC[C@H]1COCCN1C(=O)N1CCCCC1)c1ccc(-c2noc(C(F)(F)F)n2)cc1 [Example 89, N-(((3S)-4-(piperidin-1-ylcarbonyl)morpholin-3-yl)methyl)-4-(5-(trifluoromethyl)-1,2,4-oxadiazol-3-yl)benzamide]	12	98	–	–
O=C(NCC1COCCN1C(=O)C1CCCCC1)c1ccc(-c2noc(C(F)(F)F)n2)s1 (centres unmarked) [Example 254, N-((4-(cyclohexylcarbonyl)morpholin-3-yl)methyl)-5-(5-(trifluoromethyl)-1,2,4-oxadiazol-3-yl)thiophene-2-carboxamide]	33	98	–	–
O=C(NC[C@H]1COCCN1C(=O)N1CCC[C@H]1C(F)(F)F)c1ccc(-c2noc(C(F)(F)F)n2)cc1 [Example 287, 4-(5-(trifluoromethyl)-1,2,4-oxadiazol-3-yl)-N-(((3S)-4-(((2S)-2-(trifluoromethyl)pyrrolidin-1-yl)carbonyl)morpholin-3-yl)methyl)benzamide]	2	91	–	–
CC(C)(C(=O)N1CCOC[C@@H]1CNC(=O)c1ccc(-c2noc(C(F)(F)F)n2)s1)c1ccccc1 [Example 263, N-(((3S)-4-(2-methyl-2-phenylpropanoyl)morpholin-3-yl)methyl)-5-(5-(trifluoromethyl)-1,2,4-oxadiazol-3-yl)thiophene-2-carboxamide]	32	99	–	–
O=C(NC[C@H]1COCCN1C(=O)C(F)(F)c1ccccc1)c1ccc(-c2noc(C(F)(F)F)n2)s1 [Example 261, N-(((3S)-4-(difluoro(phenyl)acetyl)morpholin-3-yl)methyl)-5-(5-(trifluoromethyl)-1,2,4-oxadiazol-3-yl)thiophene-2-carboxamide]	53	101	–	–
CCc1noc(C)c1C(=O)N1CCOCC1CNC(=O)c1ccc(-c2noc(C(F)(F)F)n2)cc1 (stereo in doubt) [Example 102, N-(((3S)-4-((3-ethyl-5-methyl-1,2-oxazol-4-yl)carbonyl)morpholin-3-yl)methyl)-4-(5-(trifluoromethyl)-1,2,4-oxadiazol-3-yl)benzamide]	50	99	–	–
O=C(NC[C@H]1COCCN1C(=O)N1CCC[C@H]1CO)c1ccc(-c2noc(C(F)(F)F)n2)cc1 [Example 107, N-(((3S)-4-(((2S)-2-(hydroxymethyl)pyrrolidin-1-yl)carbonyl)morpholin-3-yl)methyl)-4-(5-(trifluoromethyl)-1,2,4-oxadiazol-3-yl)benzamide]	14	84	–	–
O=C(NCC1COCCN1C(=O)c1cc(F)c(F)c(F)c1)c1ccc(-c2noc(C(F)(F)F)n2)cc1 (stereo in doubt) [Example 119, N-(((3R)-4-(3,4,5-trifluorobenzoyl)morpholin-3-yl)methyl)-4-(5-(trifluoromethyl)-1,2,4-oxadiazol-3-yl)benzamide]	11	97	–	–
CN1CCC[C@H]1C(=O)N1CCOC[C@@H]1CNC(=O)c1ccc(-c2noc(C(F)(F)F)n2)cc1 [Example 270, N-(((3S)-4-(1-methyl-L-prolyl)morpholin-3-yl)methyl)-4-(5-(trifluoromethyl)-1,2,4-oxadiazol-3-yl)benzamide]	-1	59	–	–
Cc1cc(C(=O)N2CCOC[C@@H]2CNC(=O)c2ccc(-c3noc(C(F)(F)F)n3)cc2)ccn1 [Example 49, N-(((3S)-4-(2-methylisonicotinoyl)morpholin-3-yl)methyl)-4-(5-(trifluoromethyl)-1,2,4-oxadiazol-3-yl)benzamide]	13	–	98	–
COC[C@H]1CCCN1C(=O)N1CCOC[C@@H]1CNC(=O)c1ccc(-c2noc(C(F)(F)F)n2)cc1 [Example 272, N-(((3S)-4-(((2R)-2-(methoxymethyl)pyrrolidin-1-yl)carbonyl)morpholin-3-yl)methyl)-4-(5-(trifluoromethyl)-1,2,4-oxadiazol-3-yl)benzamide]	5	99	–	–
O=C(NCC1COCCN1C(=O)Cc1cccs1)c1ccc(-c2noc(C(F)(F)F)n2)cc1 (centres unmarked) [Example 21, N-((4-(2-thienylacetyl)morpholin-3-yl)methyl)-4-(5-(trifluoromethyl)-1,2,4-oxadiazol-3-yl)benzamide]	28	97	–	–
O=C(NC[C@H]1COCCN1C(=O)C1CCCC1)c1ccc(-c2noc(C(F)(F)F)n2)cc1 [Example 77, N-(((3S)-4-(cyclopentylcarbonyl)morpholin-3-yl)methyl)-4-(5-(trifluoromethyl)-1,2,4-oxadiazol-3-yl)benzamide]	18	98	–	–
O=C(NC[C@H]1COCCN1C(=O)c1ccccc1)c1ccc(-c2noc(C(F)(F)F)n2)cc1 [Example 36, N-(((3S)-4-benzoylmorpholin-3-yl)methyl)-4-(5-(trifluoromethyl)-1,2,4-oxadiazol-3-yl)benzamide]	–	–	105	21
O=C(NCC1COCCN1C(=O)C1(c2ccccc2)CC1)c1ccc(-c2noc(C(F)(F)F)n2)s1 (centres unmarked) [Example 248, N-((4-((1-phenylcyclopropyl)carbonyl)morpholin-3-yl)methyl)-5-(5-(trifluoromethyl)-1,2,4-oxadiazol-3-yl)thiophene-2-carboxamide]	18	97	–	–
O=C(NCC1CCc2ccccc2N1C(=O)c1ccccc1)c1ccc(-c2noc(C(F)(F)F)n2)cc1 (centres unmarked) [Example 173, N-((1-benzoyl-1,2,3,4-tetrahydroquinolin-2-yl)methyl)-4-(5-(trifluoromethyl)-1,2,4-oxadiazol-3-yl)benzamide]	16	90	–	–
O=C(NCC1CN(C(=O)c2ccccc2)CCN1C(=O)c1ccccc1)c1ccc(-c2noc(C(F)(F)F)n2)cc1 (centres unmarked) [Example 165, N-((1,4-dibenzoylpiperazin-2-yl)methyl)-4-(5-(trifluoromethyl)-1,2,4-oxadiazol-3-yl)benzamide]	17	99	–	–
O=C(NCC1COCCN1C(=O)c1ccccn1)c1ccc(-c2noc(C(F)(F)F)n2)cc1 (centres unmarked) [Example 12, N-((4-(pyridin-2-ylcarbonyl)morpholin-3-yl)methyl)-4-(5-(trifluoromethyl)-1,2,4-oxadiazol-3-yl)benzamide]	7	98	–	–
Cc1ccsc1C(=O)N1CCOC[C@@H]1CNC(=O)c1ccc(-c2noc(C(F)(F)F)n2)cc1 [Example 74, N-(((3S)-4-((3-methyl-2-thienyl)carbonyl)morpholin-3-yl)methyl)-4-(5-(trifluoromethyl)-1,2,4-oxadiazol-3-yl)benzamide]	18	100	–	–
Cc1nc2sccn2c1C(=O)N1CCOC[C@@H]1CNC(=O)c1ccc(-c2noc(C(F)(F)F)n2)cc1 [Example 91, N-(((3S)-4-((6-methylimidazo[2,1-b][1,3]thiazol-5-yl)carbonyl)morpholin-3-yl)methyl)-4-(5-(trifluoromethyl)-1,2,4-oxadiazol-3-yl)benzamide]	42	98	–	–
Cn1nc2ccccc2c1C(=O)N1CCOCC1CNC(=O)c1ccc(-c2noc(C(F)(F)F)n2)cc1 (centres unmarked) [Example 33, N-((4-((2-methyl-2H-indazol-3-yl)carbonyl)morpholin-3-yl)methyl)-4-(5-(trifluoromethyl)-1,2,4-oxadiazol-3-yl)benzamide]	47	99	–	–
Cn1nccc1CC(=O)N1CCOC[C@@H]1CNC(=O)c1ccc(-c2noc(C(F)(F)F)n2)cc1 [Example 297, N-(((3S)-4-((1-methyl-1H-pyrazol-5-yl)acetyl)morpholin-3-yl)methyl)-4-(5-(trifluoromethyl)-1,2,4-oxadiazol-3-yl)benzamide]	5	93	–	–
